According to ChEMBL document CHEMBL4417639, “Nt5c2 inhibitors useful for the treatment of chemotherapy resistant acute lymphoblastic leukemia” (2018):
Calls of active or inactive are those of the source. No cut-off for these calls is given here.

What was measured:
[1] = biological target: Cytosolic purine 5'-nucleotidase (Homo sapiens) (UniProt P49902); assay: Inhibition of nucleotidase activity of recombinant NT5C2 (unknown origin) pre-incubated for 10 mins before IMP substrate addition and further incubated for 5 mins in presence of 0.3 mM ATP by malachite green assay relative to control
Sequence of Cytosolic purine 5'-nucleotidase (Homo sapiens) (P49902 whole entry): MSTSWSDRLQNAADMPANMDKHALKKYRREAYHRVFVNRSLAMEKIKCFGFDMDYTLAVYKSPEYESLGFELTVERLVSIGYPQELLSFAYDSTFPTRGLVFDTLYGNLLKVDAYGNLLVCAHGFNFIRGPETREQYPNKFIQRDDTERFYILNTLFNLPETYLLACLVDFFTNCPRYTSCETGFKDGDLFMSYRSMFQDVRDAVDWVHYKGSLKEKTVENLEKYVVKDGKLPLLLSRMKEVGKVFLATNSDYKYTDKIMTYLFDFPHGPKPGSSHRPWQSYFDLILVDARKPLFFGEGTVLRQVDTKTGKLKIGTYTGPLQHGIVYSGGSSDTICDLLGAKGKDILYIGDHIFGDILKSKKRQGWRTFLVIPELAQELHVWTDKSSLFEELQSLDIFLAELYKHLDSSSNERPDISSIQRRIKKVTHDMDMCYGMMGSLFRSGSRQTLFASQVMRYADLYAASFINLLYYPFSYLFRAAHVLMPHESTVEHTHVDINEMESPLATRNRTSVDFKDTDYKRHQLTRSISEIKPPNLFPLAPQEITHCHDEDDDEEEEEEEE

[2] = biological target: Cytosolic purine 5'-nucleotidase (Homo sapiens) (UniProt P49902); assay: Inhibition of basal nucleotidase activity of recombinant NT5C2 (unknown origin) pre-incubated for 10 mins before IMP substrate addition and further incubated for 5 mins in absence of ATP by malachite green assay

| inhibition [1] | inhibition [2] | SMILES |
| --- | --- | --- |
| 62% | Active | Cc1cc(N2CCC(c3cc(CC(=O)O)n[nH]3)CC2)nc(N2CCCC2)n1 |
| 54% | Active | CCc1cc(NCCCc2csc(N)n2)nc(N)n1 |
| 49% | Active | CCc1c(C)nc(N)nc1NCCc1csc(N)n1 |
| 42% | Active | Nc1nc2c(c(N3CCc4nc(N)sc4C3)n1)CCCC2 |
| 29% | Active | CCc1nc(N)nc(N2CCCOC(CN3CCOCC3)C2)c1C (stereo unspecified) |
| 75% | Active | Nc1nc2c(c(NCCc3csc(N)n3)n1)CCCC2 |
| 85% | Active | Nc1nc(N2CCOCC2)cc(N2CCC(c3cc(CC(=O)O)[nH]n3)CC2)n1 |
| 49% | Active | Cc1nc(N2CCC(c3cc(CC(=O)O)n[nH]3)CC2)cc(-n2cccn2)n1 |
